Experimental data as given in patent US11022604B2, “Dock derived compound against laminin receptor (37 LR) and uses thereof” (Purdue Research Foundation, priority 2017, dated 2021).

Experiments:
[1] = target: T1, Peptide G (37 LR binding site for laminin, aa 161-180) (Homo sapiens, UniProt P08865); test: Intrinsic tryptophan fluorescence binding assay, Peptide G; settings: 50 μM Peptide G, titration 0.1 to 100 μM; read-out: EC50, reduction of intrinsic tryptophan fluorescence
T1 construct: purchased United Biosystems; host or cells: chemical synthesis
T1 sequence (P08865 161-180 limits assumed): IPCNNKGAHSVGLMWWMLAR
Method: FIG. 4. Reduction of Tryptophan Fluorescence by C3. 50 μM peptide G or Scramble G was incubated with concentrations of C3 ranging from 100 nM to 100 μM. Intrinsic tryptophan fluorescence was quantified at 350 nm emission (270 nm excitation) and graphed as a function of C3 dose after subtracting baseline C3 fluorescence. GraphPad Prism was used to determine an ECso for tryptophan reduction as described in the method (n=3±SEM).
Cell Viability Screen. PC-3, Endo, TC2-Ras, SH-SY5Y, and LNCaP cells were seeded in 96-well plates at 1,500 cells per well using the Scepter cell counter (EMD Millipore). […] Cell viability was measured by using the cell counting kit-8 (CCK-8, Dojindo). […] CCK-8 absorbance was measured at 450 nm using a GloMax Multimode Reader (Promega). Readings were performed the day after seeding to normalize for variations in cell seeding and after 96 hours of compound treatment. After each reading, CCK-8 media was removed and replaced with media containing compound as described previously. […] As described previously, an initial baseline CCK-8 reading was performed at 24 hours post seeding to correct for variations in seeding density. First, 450 nm values for each well were subtracted from media only readings to correct for baseline absorbance. Then, the 96 hour readings were normalized to their respective 24 hour readings to control for seeding variation. […]

[2] = test system: PC3 prostate cancer cell line; test: Cell Titer Glo cell viability assay; format: cell-based; settings: Homo sapiens, PC-3, PC3 cells
From the text: In this series of cell viability experiments, we used the highly sensitive Cell Titer Glo reagents from Promega in PC3 prostate cancer cell line. We compared the parental compound C3 effect on reducing cell viability with the best derivative compound, DBG-02-09.

Which results are given for `O=C(c1cc(F)cc2c1OCOC2)N1CCN(C2c3ccccc3-c3ccccc32)CC1` [Compound C3, [4-(9h-fluoren-9-yl)piperazino](6-fluoro-4h-1,3-benzodioxin-8-yl)methanone]?
EC50 [1]: 16.1 µM; IC50 [2]: 16.7 ± 7.6 µM
